Key:
Experiment in all cases: KINOMEscan competition binding
Details in all cases: compound 10.0 µM
[1] = target: RET (human) (UniProt P07949)
[2] = target: DAPK1 (human) (UniProt P53355)
[3] = target: MARK4 (human) (UniProt Q96L34)
[4] = target: CDK19 (human) (UniProt Q9BWU1)
[5] = target: JAK1 JH2 pseudokinase (human) (UniProt P23458)
[6] = test system: ABL1 (human), P00519 [H396P]
[7] = target: GRK4 (human) (UniProt P32298)
[8] = target: GAK (human) (UniProt O14976)
[9] = test system: ABL1 (human), P00519 [Y253F]
[10] = target: IKBKB (human) (UniProt O14920)
[11] = target: AURKB (human) (UniProt Q96GD4)
[12] = target: TAOK3 (human) (UniProt Q9H2K8)
[13] = target: EPHB6 (human) (UniProt O15197)
[14] = target: CAMK2G (human) (UniProt Q13555)
[15] = target: EPHA7 (human) (UniProt Q15375)
[16] = target: TYK2 JH1 catalytic (human) (UniProt P29597)
[17] = target: FGFR4 (human) (UniProt P22455)
[18] = test system: PIK3CA (human), P42336 [H1047L]
[19] = test system: ABL1 (human), P00519 [F317I]
[20] = target: TLK2 (human) (UniProt Q86UE8)
[21] = target: CDK17 (human) (UniProt Q00537)
[22] = target: MYO3A (human) (UniProt Q8NEV4)
[23] = target: TESK1 (human) (UniProt Q15569)
[24] = target: EPHA6 (human) (UniProt Q9UF33)
[25] = target: SLK (human) (UniProt Q9H2G2)
[26] = target: WEE1 (human) (UniProt P30291)
[27] = target: PKMYT1 (human) (UniProt Q99640)
[28] = target: ACVR2A (human) (UniProt P27037)
[29] = target: SYK (human) (UniProt P43405)
[30] = target: JAK1 JH1 catalytic (human) (UniProt P23458)
[31] = target: RPS6KA2 KD2 (human) (UniProt Q15349)
[32] = target: AURKC (human) (UniProt Q9UQB9)
[33] = target: TGFBR1 (human) (UniProt P36897)
[34] = test system: RET (human), P07949 [M918T]
[35] = target: EPHB4 (human) (UniProt P54760)
[36] = target: ADCK4 (human) (UniProt Q96D53)
[37] = target: PRKD3 (human) (UniProt O94806)
[38] = target: STK32B (human) (UniProt Q9NY57)
[39] = target: MAPK1 (human) (UniProt P28482)
[40] = target: ABL2 (human) (UniProt P42684)
[41] = target: DCLK1 (human) (UniProt O15075)

TYK2 JH1 catalytic (human), sequence (P29597 whole entry, looked up): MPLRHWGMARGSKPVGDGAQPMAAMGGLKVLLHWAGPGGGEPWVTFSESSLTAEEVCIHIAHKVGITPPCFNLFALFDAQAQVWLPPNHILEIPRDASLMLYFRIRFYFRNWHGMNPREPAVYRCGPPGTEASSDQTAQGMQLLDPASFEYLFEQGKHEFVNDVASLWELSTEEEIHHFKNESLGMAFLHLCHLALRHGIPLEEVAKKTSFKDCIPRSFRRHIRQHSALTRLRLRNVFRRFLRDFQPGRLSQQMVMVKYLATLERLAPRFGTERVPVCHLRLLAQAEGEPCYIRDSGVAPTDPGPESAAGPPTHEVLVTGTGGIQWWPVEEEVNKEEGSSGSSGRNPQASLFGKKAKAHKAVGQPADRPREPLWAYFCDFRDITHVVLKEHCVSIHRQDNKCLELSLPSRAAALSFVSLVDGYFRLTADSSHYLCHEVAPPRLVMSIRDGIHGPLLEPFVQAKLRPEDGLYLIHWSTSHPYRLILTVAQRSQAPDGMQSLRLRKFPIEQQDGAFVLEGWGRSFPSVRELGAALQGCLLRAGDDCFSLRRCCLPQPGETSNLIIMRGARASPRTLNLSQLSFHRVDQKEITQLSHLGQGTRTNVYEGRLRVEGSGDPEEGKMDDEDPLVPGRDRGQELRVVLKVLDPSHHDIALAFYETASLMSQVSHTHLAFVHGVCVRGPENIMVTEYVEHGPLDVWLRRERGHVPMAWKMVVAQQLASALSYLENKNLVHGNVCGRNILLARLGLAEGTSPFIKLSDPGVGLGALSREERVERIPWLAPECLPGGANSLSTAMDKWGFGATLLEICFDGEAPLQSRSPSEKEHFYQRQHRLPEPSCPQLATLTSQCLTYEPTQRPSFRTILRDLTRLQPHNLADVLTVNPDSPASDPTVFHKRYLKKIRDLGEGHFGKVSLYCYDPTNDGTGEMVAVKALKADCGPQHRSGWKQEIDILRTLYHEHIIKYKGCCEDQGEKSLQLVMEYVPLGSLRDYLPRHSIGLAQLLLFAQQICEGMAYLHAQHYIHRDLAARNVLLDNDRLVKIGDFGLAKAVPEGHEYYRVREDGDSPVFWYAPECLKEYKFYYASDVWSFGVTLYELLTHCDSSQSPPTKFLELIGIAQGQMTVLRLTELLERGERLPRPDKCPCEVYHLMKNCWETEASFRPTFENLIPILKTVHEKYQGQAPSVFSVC
CAMK2G (human), sequence (Q13555 whole entry, looked up): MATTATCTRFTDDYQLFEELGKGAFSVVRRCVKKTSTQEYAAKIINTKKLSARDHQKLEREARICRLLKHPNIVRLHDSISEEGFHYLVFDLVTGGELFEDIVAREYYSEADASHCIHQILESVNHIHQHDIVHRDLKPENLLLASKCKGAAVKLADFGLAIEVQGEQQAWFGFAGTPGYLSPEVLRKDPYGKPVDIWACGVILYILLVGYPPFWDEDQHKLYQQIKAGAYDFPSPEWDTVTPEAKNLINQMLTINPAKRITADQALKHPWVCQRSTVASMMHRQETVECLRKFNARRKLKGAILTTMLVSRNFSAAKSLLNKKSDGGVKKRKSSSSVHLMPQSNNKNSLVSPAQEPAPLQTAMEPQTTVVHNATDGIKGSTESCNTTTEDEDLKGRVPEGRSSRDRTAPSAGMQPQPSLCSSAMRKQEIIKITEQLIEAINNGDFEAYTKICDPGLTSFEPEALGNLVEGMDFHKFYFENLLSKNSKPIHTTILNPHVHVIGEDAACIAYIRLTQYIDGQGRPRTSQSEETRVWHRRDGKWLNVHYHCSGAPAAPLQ
MAPK1 (human), sequence (P28482 whole entry, looked up): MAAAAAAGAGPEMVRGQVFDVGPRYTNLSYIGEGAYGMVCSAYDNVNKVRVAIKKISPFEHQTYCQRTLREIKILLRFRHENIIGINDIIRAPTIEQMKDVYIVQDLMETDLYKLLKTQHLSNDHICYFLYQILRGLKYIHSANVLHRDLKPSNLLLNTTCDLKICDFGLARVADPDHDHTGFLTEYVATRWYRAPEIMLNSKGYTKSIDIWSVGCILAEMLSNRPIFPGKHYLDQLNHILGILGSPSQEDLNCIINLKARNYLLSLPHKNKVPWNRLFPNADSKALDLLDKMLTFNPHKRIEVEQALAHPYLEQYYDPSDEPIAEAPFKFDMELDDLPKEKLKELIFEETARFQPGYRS
ABL2 (human), sequence (P42684 whole entry, looked up): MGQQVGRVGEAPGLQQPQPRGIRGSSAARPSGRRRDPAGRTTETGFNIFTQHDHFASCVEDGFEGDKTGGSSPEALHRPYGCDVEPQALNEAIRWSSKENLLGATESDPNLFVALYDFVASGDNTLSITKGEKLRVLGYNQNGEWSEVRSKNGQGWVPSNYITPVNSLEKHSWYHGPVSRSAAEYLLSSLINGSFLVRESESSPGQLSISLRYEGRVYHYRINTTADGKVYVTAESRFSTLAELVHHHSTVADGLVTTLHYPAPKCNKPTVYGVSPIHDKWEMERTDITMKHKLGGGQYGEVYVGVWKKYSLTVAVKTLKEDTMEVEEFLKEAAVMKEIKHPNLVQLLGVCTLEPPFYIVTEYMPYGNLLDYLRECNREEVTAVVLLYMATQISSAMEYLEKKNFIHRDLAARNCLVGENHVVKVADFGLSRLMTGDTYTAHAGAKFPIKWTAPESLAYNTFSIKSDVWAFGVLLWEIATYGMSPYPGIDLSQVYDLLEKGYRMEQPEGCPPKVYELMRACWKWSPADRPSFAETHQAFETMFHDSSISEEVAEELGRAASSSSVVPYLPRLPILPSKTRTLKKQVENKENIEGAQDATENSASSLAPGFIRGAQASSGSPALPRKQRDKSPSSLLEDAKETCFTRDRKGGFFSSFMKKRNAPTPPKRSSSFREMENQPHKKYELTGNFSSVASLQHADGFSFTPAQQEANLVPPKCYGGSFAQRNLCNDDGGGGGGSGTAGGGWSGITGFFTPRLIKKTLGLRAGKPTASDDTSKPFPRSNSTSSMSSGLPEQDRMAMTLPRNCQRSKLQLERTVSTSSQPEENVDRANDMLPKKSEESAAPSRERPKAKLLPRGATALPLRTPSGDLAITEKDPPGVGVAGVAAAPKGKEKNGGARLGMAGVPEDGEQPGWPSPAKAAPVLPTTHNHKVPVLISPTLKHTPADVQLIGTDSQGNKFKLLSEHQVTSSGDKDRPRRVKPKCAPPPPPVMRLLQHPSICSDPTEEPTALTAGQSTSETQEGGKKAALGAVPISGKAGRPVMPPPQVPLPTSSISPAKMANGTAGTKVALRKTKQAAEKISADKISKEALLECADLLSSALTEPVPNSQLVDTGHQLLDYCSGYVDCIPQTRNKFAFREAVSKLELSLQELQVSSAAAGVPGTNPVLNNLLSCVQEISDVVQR
RET (human), P07949 [M918T], sequence (P07949 whole entry M918T, looked up): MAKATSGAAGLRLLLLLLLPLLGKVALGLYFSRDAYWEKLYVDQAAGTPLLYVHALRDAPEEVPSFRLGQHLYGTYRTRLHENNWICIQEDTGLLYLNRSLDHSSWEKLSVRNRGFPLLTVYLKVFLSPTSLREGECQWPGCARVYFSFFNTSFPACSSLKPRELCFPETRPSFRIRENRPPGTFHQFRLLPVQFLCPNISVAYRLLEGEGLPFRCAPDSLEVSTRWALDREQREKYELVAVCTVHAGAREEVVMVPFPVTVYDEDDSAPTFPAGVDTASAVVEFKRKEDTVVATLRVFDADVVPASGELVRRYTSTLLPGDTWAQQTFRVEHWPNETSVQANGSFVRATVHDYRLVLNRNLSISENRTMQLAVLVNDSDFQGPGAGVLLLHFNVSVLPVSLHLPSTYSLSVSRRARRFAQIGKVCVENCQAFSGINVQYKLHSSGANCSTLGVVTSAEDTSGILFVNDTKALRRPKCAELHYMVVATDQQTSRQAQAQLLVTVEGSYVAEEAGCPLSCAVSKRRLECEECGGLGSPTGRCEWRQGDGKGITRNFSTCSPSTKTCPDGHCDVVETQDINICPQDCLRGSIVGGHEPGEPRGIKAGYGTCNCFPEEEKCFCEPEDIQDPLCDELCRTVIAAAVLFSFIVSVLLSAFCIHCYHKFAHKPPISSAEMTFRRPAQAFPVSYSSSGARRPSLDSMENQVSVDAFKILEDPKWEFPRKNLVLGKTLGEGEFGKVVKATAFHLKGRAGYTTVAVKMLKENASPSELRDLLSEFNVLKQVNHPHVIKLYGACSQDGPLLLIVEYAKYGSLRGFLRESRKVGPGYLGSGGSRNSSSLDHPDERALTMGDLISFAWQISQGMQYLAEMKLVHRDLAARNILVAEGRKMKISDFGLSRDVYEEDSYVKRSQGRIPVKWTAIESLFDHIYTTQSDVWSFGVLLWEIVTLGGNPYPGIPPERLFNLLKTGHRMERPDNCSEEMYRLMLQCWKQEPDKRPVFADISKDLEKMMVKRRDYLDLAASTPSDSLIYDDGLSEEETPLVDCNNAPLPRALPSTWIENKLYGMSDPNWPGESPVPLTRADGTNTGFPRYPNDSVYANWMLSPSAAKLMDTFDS
WEE1 (human), sequence (P30291 whole entry, looked up): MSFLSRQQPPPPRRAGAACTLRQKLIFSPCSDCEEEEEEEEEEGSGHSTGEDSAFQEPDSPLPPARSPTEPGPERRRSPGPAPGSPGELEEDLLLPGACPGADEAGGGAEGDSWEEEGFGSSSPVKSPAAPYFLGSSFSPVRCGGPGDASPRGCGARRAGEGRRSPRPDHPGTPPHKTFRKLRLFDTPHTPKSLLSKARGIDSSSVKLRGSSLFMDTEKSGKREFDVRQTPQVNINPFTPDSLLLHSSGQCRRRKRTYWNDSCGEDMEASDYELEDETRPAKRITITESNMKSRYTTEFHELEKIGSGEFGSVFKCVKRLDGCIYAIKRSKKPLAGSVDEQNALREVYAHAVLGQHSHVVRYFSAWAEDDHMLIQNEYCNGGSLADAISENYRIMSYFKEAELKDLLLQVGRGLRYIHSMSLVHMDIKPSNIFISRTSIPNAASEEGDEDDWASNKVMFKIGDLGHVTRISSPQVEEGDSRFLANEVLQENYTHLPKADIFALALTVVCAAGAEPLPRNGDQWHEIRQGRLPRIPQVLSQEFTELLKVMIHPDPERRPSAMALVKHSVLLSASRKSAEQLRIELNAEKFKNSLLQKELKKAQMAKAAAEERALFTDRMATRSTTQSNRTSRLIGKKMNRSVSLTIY
RET (human), sequence (P07949 whole entry, looked up): as the sequence (P07949 whole entry M918T, looked up) above, with T918M counted along it

Compound: COc1ccc(CNC(=O)Nc2ncc([N+](=O)[O-])s2)cc1
- kinase still bound, per cent of control [1]: 100%
- kinase still bound, per cent of control [2]: 99%
- kinase still bound, per cent of control [3]: 100%
- kinase still bound, per cent of control [4]: 100%
- kinase still bound, per cent of control [5]: 89%
- kinase still bound, per cent of control [6]: 75%
- kinase still bound, per cent of control [7]: 100%
- kinase still bound, per cent of control [8]: 98%
- kinase still bound, per cent of control [9]: 100%
- kinase still bound, per cent of control [10]: 100%
- kinase still bound, per cent of control [11]: 97%
- kinase still bound, per cent of control [12]: 54%
- kinase still bound, per cent of control [13]: 100%
- kinase still bound, per cent of control [14]: 100%
- kinase still bound, per cent of control [15]: 100%
- kinase still bound, per cent of control [16]: 100%
- kinase still bound, per cent of control [17]: 100%
- kinase still bound, per cent of control [18]: 100%
- kinase still bound, per cent of control [19]: 100%
- kinase still bound, per cent of control [20]: 93%
- kinase still bound, per cent of control [21]: 79%
- kinase still bound, per cent of control [22]: 100%
- kinase still bound, per cent of control [23]: 100%
- kinase still bound, per cent of control [24]: 100%
- kinase still bound, per cent of control [25]: 100%
- kinase still bound, per cent of control [26]: 80%
- kinase still bound, per cent of control [27]: 53%
- kinase still bound, per cent of control [28]: 87%
- kinase still bound, per cent of control [29]: 100%
- kinase still bound, per cent of control [30]: 76%
- kinase still bound, per cent of control [31]: 83%
- kinase still bound, per cent of control [32]: 92%
- kinase still bound, per cent of control [33]: 82%
- kinase still bound, per cent of control [34]: 100%
- kinase still bound, per cent of control [35]: 100%
- kinase still bound, per cent of control [36]: 100%
- kinase still bound, per cent of control [37]: 100%
- kinase still bound, per cent of control [38]: 100%
- kinase still bound, per cent of control [39]: 100%
- kinase still bound, per cent of control [40]: 89%
- kinase still bound, per cent of control [41]: 100%

Compound: Cc1cnc(-c2cnc(NCCNc3ccc(C#N)cn3)nc2-c2ccc(Cl)cc2Cl)[nH]1
- kinase still bound, per cent of control [1]: 100%
- kinase still bound, per cent of control [2]: 84%
- kinase still bound, per cent of control [3]: 100%
- kinase still bound, per cent of control [4]: 100%
- kinase still bound, per cent of control [5]: 87%
- kinase still bound, per cent of control [6]: 100%
- kinase still bound, per cent of control [7]: 100%
- kinase still bound, per cent of control [8]: 79%
- kinase still bound, per cent of control [9]: 100%
- kinase still bound, per cent of control [10]: 80%
- kinase still bound, per cent of control [11]: 94%
- kinase still bound, per cent of control [12]: 13%
- kinase still bound, per cent of control [13]: 100%
- kinase still bound, per cent of control [14]: 100%
- kinase still bound, per cent of control [15]: 100%
- kinase still bound, per cent of control [16]: 99%
- kinase still bound, per cent of control [17]: 100%
- kinase still bound, per cent of control [18]: 100%
- kinase still bound, per cent of control [19]: 100%
- kinase still bound, per cent of control [20]: 80%
- kinase still bound, per cent of control [21]: 100%
- kinase still bound, per cent of control [22]: 100%
- kinase still bound, per cent of control [23]: 100%
- kinase still bound, per cent of control [24]: 100%
- kinase still bound, per cent of control [25]: 63%
- kinase still bound, per cent of control [26]: 98%
- kinase still bound, per cent of control [27]: 100%
- kinase still bound, per cent of control [28]: 100%
- kinase still bound, per cent of control [29]: 100%
- kinase still bound, per cent of control [30]: 94%
- kinase still bound, per cent of control [31]: 100%
- kinase still bound, per cent of control [32]: 92%
- kinase still bound, per cent of control [33]: 100%
- kinase still bound, per cent of control [34]: 100%
- kinase still bound, per cent of control [35]: 100%
- kinase still bound, per cent of control [36]: 100%
- kinase still bound, per cent of control [37]: 88%
- kinase still bound, per cent of control [38]: 100%
- kinase still bound, per cent of control [39]: 100%
- kinase still bound, per cent of control [40]: 100%
- kinase still bound, per cent of control [41]: 100%

Compound: Cn1cc(C2=C(c3ccc(Cl)cc3Cl)C(=O)NC2=O)c2ccccc21
- kinase still bound, per cent of control [1]: 100%
- kinase still bound, per cent of control [2]: 79%
- kinase still bound, per cent of control [3]: 100%
- kinase still bound, per cent of control [4]: 100%
- kinase still bound, per cent of control [5]: 82%
- kinase still bound, per cent of control [6]: 90%
- kinase still bound, per cent of control [7]: 100%
- kinase still bound, per cent of control [8]: 74%
- kinase still bound, per cent of control [9]: 100%
- kinase still bound, per cent of control [10]: 83%
- kinase still bound, per cent of control [11]: 96%
- kinase still bound, per cent of control [12]: 92%
- kinase still bound, per cent of control [13]: 100%
- kinase still bound, per cent of control [14]: 58%
- kinase still bound, per cent of control [15]: 95%
- kinase still bound, per cent of control [16]: 100%
- kinase still bound, per cent of control [17]: 88%
- kinase still bound, per cent of control [18]: 100%
- kinase still bound, per cent of control [19]: 100%
- kinase still bound, per cent of control [20]: 62%
- kinase still bound, per cent of control [21]: 12%
- kinase still bound, per cent of control [22]: 95%
- kinase still bound, per cent of control [23]: 100%
- kinase still bound, per cent of control [24]: 100%
- kinase still bound, per cent of control [25]: 8.7%
- kinase still bound, per cent of control [26]: 80%
- kinase still bound, per cent of control [27]: 100%
- kinase still bound, per cent of control [28]: 79%
- kinase still bound, per cent of control [29]: 92%
- kinase still bound, per cent of control [30]: 90%
- kinase still bound, per cent of control [31]: 78%
- kinase still bound, per cent of control [32]: 96%
- kinase still bound, per cent of control [33]: 96%
- kinase still bound, per cent of control [34]: 100%
- kinase still bound, per cent of control [35]: 100%
- kinase still bound, per cent of control [36]: 100%
- kinase still bound, per cent of control [37]: 78%
- kinase still bound, per cent of control [38]: 100%
- kinase still bound, per cent of control [39]: 100%
- kinase still bound, per cent of control [40]: 93%
- kinase still bound, per cent of control [41]: 100%

Source: the kinase profiling compilation of Christmann-Franck et al. (2016)
